Reference: BindingDB's records for doi:10.1021/jm800200u (Mgi Pharma, 2008)

Molecular target: D-amino-acid oxidase (Sus scrofa, UniProt P00371)
Assay: In vitro D-Amino Acid Oxidase Assay
Conditions: pH 8.5; 22 °C
Procedure: D-amino acid oxidase (DAAO) was assayed in a 96-well plate format. D-serine was oxidatively deaminated by porcine D-amino acid oxidase in the presence of molecular oxygen and flavin […] dinucleotide (FAD) to yield the corresponding alpha-keto acid, ammonia and hydrogen peroxide.

D-amino-acid oxidase, sequence (P00371 whole entry): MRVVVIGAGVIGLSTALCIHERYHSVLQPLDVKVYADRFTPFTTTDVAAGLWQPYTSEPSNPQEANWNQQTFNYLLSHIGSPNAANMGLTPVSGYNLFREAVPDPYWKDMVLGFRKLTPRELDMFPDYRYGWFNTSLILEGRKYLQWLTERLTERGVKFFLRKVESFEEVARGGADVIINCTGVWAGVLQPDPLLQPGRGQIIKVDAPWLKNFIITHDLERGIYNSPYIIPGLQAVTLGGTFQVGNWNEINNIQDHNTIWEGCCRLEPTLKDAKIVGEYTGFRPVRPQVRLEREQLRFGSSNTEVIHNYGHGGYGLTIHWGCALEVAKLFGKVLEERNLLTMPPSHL

IC50: > 100 µM
Structure (SMILES): O=c1[nH]oc2c1CCCC2 [4,5,6,7-tetrahydrobenzo[d]isoxazol-3-ol]
